Patent US9089546B2, “Synergistic compositions consisting essentially of combinations of active agents selected from oridonin, wogonin, and isoliquiritigenin for the prevention of neoplasia” (ACTIVEPHYTO TECHNOLOGIES LIMITED, priority 2006, dated 2015)

Experiments:
Assay type in all cases: cell-based
PTX10 = test: MTT assay, second set of experiments (Experiment 4), single agents; details: Homo sapiens, PTX10 (taxol-resistant)
Procedure: (§1) Inhibition of Cell-Growth and Viability […]: The MTT reagent kit was purchased from Boehringer Mannheim (Roche Diagnosis Corp, Indianapolis, Ind.) to count viable cells. […] The protocol for the cell viability assay was provided by the manufacturer and modified in our laboratory as described below: Ovarian cancer cells were seeded in 96 well microtiter plates at a concentration of 6×10^3 cells per well, in a volume of 100 μL of cell culture medium. After 24 hours, 20 μL aliquots of the compounds at various concentrations were added to the attached cells. Each concentration was plated into 3 wells to obtain mean values. To eliminate any solvent effect, 20 μL of the solvent used in the preparation of the highest concentration of the compounds (a maximum of 0.5% by volume of DMSO) was added to the control cells in each well. The plates were incubated at 37° C. in the CO2 incubator for 72 hours. At the end of day 3, the culture medium was carefully removed without disturbing the cells, and replaced by 100 μL of fresh cell medium. 10 μL of MTT reagent was added to each well and the plates were incubated again in the CO2 incubator at 37° C. for 4 hours. 100 μL of SDS solubilising reagent (from Boehringer Mannheim) was added to each well. The plate was allowed to stand overnight in the CO2 incubator and read by ELISA Reader (EL800, Bio-Tek Instruments, Inc.) at a wavelength of 570 nm. The percent cell viability was calculated according to the equation below: 100% (absorption of the control cells-absorption of the treated cells)/absorption of the control cells. A second set of experiments were carried out showing how the compounds in the formulations of the invention act in synergy with one another. The experimental results differ slightly from those reported above as the experimental work was carried out in a different laboratory and under slightly different conditions. In the second set of experiments the MTT reagent kit was purchased from Sigma-Aldridge in the UK and, due to time constraints; the cells were only incubated overnight prior to being treated with the drugs. The cell lines were also of different origin (the second set being obtained directly from Dr Marianne Poruch of the NIH, Bethesda Md., USA) and may have been subjected to different conditions during storage.

A2780 = test: as above; details: Homo sapiens
Procedure: as §1

[1] = test system: human ovarian cancer cell lines A2780 (sensitive) and PTX-10 (resistant to taxol); test: Antiproliferative activity, MTT cell viability assay, first set of experiments (72 h), comparison of the two cell lines; details: A2780 versus taxol-resistant PTX-10
Excerpt: The present investigation uses two types of cancer cells: A2780 and PTX-10. A2780 is typical of most human ovarian cancers and is not known to be drug-resistant. PTX10 is a taxol-resistant variant of A2780. These two cell types provide a model to compare the effectiveness of the compositions of the present invention against a typical ovarian human cancer where taxol would be a useful treatment and a tumour line where taxol is not useful in treatment.
Cell lines: A2780 and PTX-10 cell lines were from National Institute of Health, Bethesda, Md.
Cell Culture: Both cell lines were cultured in RPMI 1640 supplemented with 10% foetal bovine serum, L-glutamine and antibiotics according to the method of Halicka et al. (Int. J. Oncology 1:437-48, 1997). All media, supplements, and antibiotics were obtained from Life Technologies (Grand Island, N.Y.). The cultures were periodically tested for Mycoplasma infection.
To maintain asynchronous exponential growth, these adherent cells were routinely seeded at 3×10^5 in a T-75 flask and incubated at 37° C. in 5% CO2 for 5-6 days and then repassaged at a 1:10 dilution by trypsinisation (0.25% trypsin/1 mM EDTA). Morphological changes and cell counts of the control and treated cancer cells were determined by light microscopy. Only exponentially and asynchronously growing cells were used in all experiments.
Inhibition of Cell-Growth and Viability AssASYS: The MTT reagent kit was purchased from Boehringer Mannheim (Roche Diagnosis Corp, Indianapolis, Ind.) to count viable cells. […] The protocol for the cell viability assay was provided by the manufacturer and modified in our laboratory as described below: […]
The plates were incubated at 37° C. in the CO2 incubator for 72 hours. […] The plate was allowed to stand overnight in the CO2 incubator and read by ELISA Reader (EL800, Bio-Tek Instruments, Inc.) at a wavelength of 570 nm. The percent cell viability was calculated according to the equation below: 100% (absorption of the control cells−absorption of the treated cells)/absorption of the control cells. […]

Q: Which results are given for `C=C1C(=O)[C@]23[C@H](O)[C@H]1CC[C@H]2[C@@]12CO[C@]3(O)[C@@H](O)[C@@H]1C(C)(C)CC[C@@H]2O` [Formula I, oridonin]?
A: IC50 (PTX10): 4720 ± 3700 nM; IC50 (A2780): 810 ± 130 nM; relative sensitivity of the cell lines (dose-response curves, antiproliferative activity) [1]: A2780 cell line is more sensitive

Q: With `COc1c(O)cc(O)c2c(=O)cc(-c3ccccc3)oc12` [Formula III, wogonin] as the compound, how does the IC50 (PTX10) read?
A: The IC50 was 590 ± 380 nM.

Q: What about the IC50 (A2780) of the same compound?
A: The IC50 was 670 ± 230 nM.

Q: And the “relative sensitivity of the cell lines (dose-response curves, antiproliferative activity)” value [1]?
A: The value was “PTX-10 cell line is slightly more sensitive”.

Q: What does the source list for `O=C(/C=C/c1ccc(O)cc1)c1ccc(O)cc1O` [Formula V, isoliquiritigenin]?
A: IC50 (PTX10): 300 ± 130 nM; IC50 (A2780): 2400 ± 420 nM; relative sensitivity of the cell lines (dose-response curves, antiproliferative activity) [1]: PTX-10 cell line is more sensitive
